Laboratory results as given in ChEMBL document CHEMBL1152546, “N-[2-chloro-9H-purin-6-yl]-N-cyclopropylglycylamino acids and derivatives: synthesis, evaluation as a class of novel analgesics, and 3D QSAR analysis” (2009).

Tests used:
Assay type in all cases: functional
Mus musculus [1] = test: Analgesic activity in ICR mouse assessed as pain threshold variation at 25 umol/kg, po administered as single dose measured after 60 mins by tail flick test relative to control
Mus musculus [2] = test: Analgesic activity in ICR mouse assessed as pain threshold variation at 25 umol/kg, po administered as single dose measured after 30 mins by tail flick test relative to control
Mus musculus [3] = test: Analgesic activity in ICR mouse assessed as pain threshold variation at 25 umol/kg, po administered as single dose measured after 90 mins by tail flick test relative to control
Mus musculus [4] = test: Analgesic activity in ICR mouse assessed as pain threshold variation at 25 umol/kg, po administered as single dose measured after 120 mins by tail flick test relative to control
Mus musculus [5] = test: Analgesic activity in ICR mouse assessed as pain threshold variation at 25 umol/kg, po administered as single dose measured after 150 mins by tail flick test relative to control
Mus musculus [6] = test: Analgesic activity in ICR mouse assessed as pain threshold variation at 25 umol/kg, po administered as single dose measured after 180 mins by tail flick test relative to control

Structure (SMILES)	Activity (Mus musculus [1])	Activity (Mus musculus [2])	Activity (Mus musculus [3])	Activity (Mus musculus [4])	Activity (Mus musculus [5])	Activity (Mus musculus [6])
N=C(N)NCCC[C@H](NC(=O)CN(c1nc(Cl)nc2[nH]cnc12)C1CC1)C(=O)OCc1ccccc1	30.57%	23.19%	30.44%	10.24%	6.12%	1.78%
O=C(CN(c1nc(Cl)nc2[nH]cnc12)C1CC1)N[C@@H](Cc1c[nH]c2ccccc12)C(=O)OCc1ccccc1	42.24%	30.67%	40.71%	21.51%	10.71%	7.78%
O=C(CN(c1ncnc2c1ncn2C1CCCCO1)C1CC1)N[C@@H](CCC(=O)OCc1ccccc1)C(=O)OCc1ccccc1 (some centres undefined)	34.74%	32.61%	25.2%	20.71%	14.14%	10.93%
O=C(CN(c1nc(Cl)nc2[nH]cnc12)C1CC1)N[C@@H](CO)C(=O)O	39.76%	38.65%	43.9%	39%	18.83%	12.32%
O=C(CN(c1ncnc2c1ncn2C1CCCCO1)C1CC1)N[C@@H](Cc1ccccc1)C(=O)OCc1ccccc1 (some centres undefined)	45.54%	39.2%	37.73%	26.29%	3.49%	1.79%
O=C(O)[C@@H]1CCCN1C(=O)CN(c1nc(Cl)nc2[nH]cnc12)C1CC1	34.94%	31.47%	25.99%	23.61%	7.29%	6.67%
CSCC[C@H](NC(=O)CN(c1ncnc2c1ncn2C1CCCCO1)C1CC1)C(=O)OCc1ccccc1 (some centres undefined)	40.97%	30.04%	42.7%	28.66%	17.47%	12.89%
CSCC[C@H](NC(=O)CN(c1nc(Cl)nc2[nH]cnc12)C1CC1)C(=O)OCc1ccccc1	30.76%	22.22%	44.55%	31.55%	17.64%	10.66%
O=C(CN(c1ncnc2c1ncn2C1CCCCO1)C1CC1)N[C@@H](Cc1ccc(O)cc1)C(=O)OCc1ccccc1 (some centres undefined)	35.82%	20.53%	36.45%	17.44%	8.71%	5.02%
O=C(CN(c1ncnc2c1ncn2C1CCCCO1)C1CC1)N[C@@H](CO)C(=O)OCc1ccccc1 (some centres undefined)	46.71%	27.77%	32.17%	29.2%	18.32%	12.85%
CC[C@H](C)[C@H](NC(=O)CN(c1nc(Cl)nc2[nH]cnc12)C1CC1)C(=O)O	35.97%	30.34%	27.39%	21.42%	6.71%	3.9%
O=C(CN(c1nc(Cl)nc2[nH]cnc12)C1CC1)N[C@@H](Cc1c[nH]c2ccccc12)C(=O)O	17.84%	17.55%	18.3%	8.19%	5.27%	3.91%
O=C(CN(c1ncnc2c1ncn2C1CCCCO1)C1CC1)NCC(=O)OCc1ccccc1 (centres undefined)	40.44%	55.72%	25.94%	17.23%	7.26%	0.06%
C[C@H](NC(=O)CN(c1nc(Cl)nc2[nH]cnc12)C1CC1)C(=O)O	44.64%	48.1%	43.53%	28.41%	14.68%	6.68%
O=C(CN(c1nc(Cl)nc2[nH]cnc12)C1CC1)N[C@@H](Cc1ccc(O)cc1)C(=O)O	43.23%	46.22%	33.92%	23.69%	13.71%	8.15%
O=C(OCc1ccccc1)[C@@H]1CCCN1C(=O)CN(c1ncnc2c1ncn2C1CCCCO1)C1CC1 (some centres undefined)	36.73%	32.25%	23.31%	17.49%	7.85%	6.63%
NC(=O)CC[C@H](NC(=O)CN(c1ncnc2c1ncn2C1CCCCO1)C1CC1)C(=O)OCc1ccccc1 (some centres undefined)	39.4%	46.96%	37.82%	22.34%	10.72%	7.71%

Structure (SMILES)	Activity (Mus musculus [1])	Activity (Mus musculus [2])	Activity (Mus musculus [3])	Activity (Mus musculus [4])	Activity (Mus musculus [5])	Activity (Mus musculus [6])
C[C@@H](O)[C@H](NC(=O)CN(c1nc(Cl)nc2[nH]cnc12)C1CC1)C(=O)O	30.07%	18.59%	35.87%	37.59%	24.02%	4.69%
NC(=O)C[C@H](NC(=O)CN(c1nc(Cl)nc2[nH]cnc12)C1CC1)C(=O)O	43.14%	29.73%	20.06%	17.03%	7.51%	5.66%
CCOC(=O)CN(c1nc(Cl)nc2c1ncn2C1CCCCO1)C1CC1 (centres undefined)	22.64%	9.92%	13.04%	14.91%	11.85%	5.33%
CSCC[C@H](NC(=O)CN(c1nc(Cl)nc2[nH]cnc12)C1CC1)C(=O)O	22.75%	20.37%	13.99%	5.67%	4.14%	3.4%
O=C(OCc1ccccc1)[C@@H]1CCCN1C(=O)CN(c1nc(Cl)nc2[nH]cnc12)C1CC1	34.37%	33.18%	43.28%	38.35%	31.09%	17.63%
CC(C)C[C@H](NC(=O)CN(c1nc(Cl)nc2[nH]cnc12)C1CC1)C(=O)OCc1ccccc1	27.26%	33.91%	15.21%	8.58%	5.26%	4.29%
CC(C)(C)OC(=O)NCCCC[C@H](NC(=O)CN(c1ncnc2c1ncn2C1CCCCO1)C1CC1)C(=O)OCc1ccccc1 (some centres undefined)	32.66%	18.33%	32.85%	28.39%	17.2%	10.06%
CC(C)[C@H](NC(=O)CN(c1ncnc2c1ncn2C1CCCCO1)C1CC1)C(=O)OCc1ccccc1 (some centres undefined)	34.85%	21.83%	30.14%	25.79%	21.08%	5.65%
O=C(CN(c1ncnc2c1ncn2C1CCCCO1)C1CC1)N[C@@H](Cc1cnc[nH]1)C(=O)OCc1ccccc1 (some centres undefined)	36.43%	24.98%	14.45%	10.16%	5.31%	4.38%
C[C@@H](O)[C@H](NC(=O)CN(c1ncnc2c1ncn2C1CCCCO1)C1CC1)C(=O)OCc1ccccc1 (some centres undefined)	28.36%	23.61%	23.38%	10.91%	6.53%	2.34%
N=C(N)NCCC[C@H](NC(=O)CN(c1ncnc2c1ncn2C1CCCCO1)C1CC1)C(=O)OCc1ccccc1 (some centres undefined)	52.35%	34.27%	61.58%	38.16%	19.6%	7.97%
CC[C@H](C)[C@H](NC(=O)CN(c1ncnc2c1ncn2C1CCCCO1)C1CC1)C(=O)OCc1ccccc1 (some centres undefined)	27.35%	25.56%	22.57%	20.42%	16.43%	9.15%
O=C(CN(c1ncnc2c1ncn2C1CCCCO1)C1CC1)N[C@@H](CC(=O)OCc1ccccc1)C(=O)OCc1ccccc1 (some centres undefined)	38.15%	31.81%	25.07%	7.82%	0.06%	0.03%
O=C(CN(c1ncnc2c1ncn2C1CCCCO1)C1CC1)N[C@@H](Cc1c[nH]c2ccccc12)C(=O)OCc1ccccc1 (some centres undefined)	51.9%	43.53%	38.93%	22.58%	11.45%	5.15%
CC[C@H](C)[C@H](NC(=O)CN(c1nc(Cl)nc2[nH]cnc12)C1CC1)C(=O)OCc1ccccc1	40.63%	41.39%	36.28%	21.97%	6.9%	3.38%
O=C(O)CNC(=O)CN(c1nc(Cl)nc2[nH]cnc12)C1CC1	38.89%	32.16%	32.31%	19.81%	9.08%	8.11%
O=C(O)C[C@H](NC(=O)CN(c1nc(Cl)nc2[nH]cnc12)C1CC1)C(=O)O	38.9%	19.85%	25.14%	21.95%	11.63%	3.17%
